Results on 26 compounds are retold here after patent US20230167127A1, “COMPOUNDS AND THEIR USE IN THE TREATMENT OF BACTERIAL INFECTION” (Hoffmann-La Roche Inc., priority 2020, published 2023).

pIC50: −log10 of the molar value. Bounds are passed on as bounds.

The first assay relates to Escherichia coli ATCC 25922. As to the kind of experiment: 50% growth inhibitory concentration (IC50) determination, Iso-Sensitest broth dilution. It is filed as cell-based. The settings on record: Escherichia coli, ATCC25922, 16 h, strain Escherichia coli ATCC 25922; 10-point broth dilution, optical density at 600 nm over 16 h; read-out: Escherichia coli growth inhibition IC50. An outline of the steps: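 Growth was tracked as optical density at 600 nm every 20 minutes for 16 h at 35±2° C. Compounds from DMSO stocks were serially diluted twofold over 10 points (e.g. 50–0.097 μM final) in Iso-Sensitest broth. Inhibition computed in log-phase growth to give IC50.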
Broadly, the pIC50 is the IC50 on a negative log10 scale, so that one unit is a factor of ten. Consider `Cc1ccnc2c1CC(CNCCC1CN(c3ccc4c(n3)NC(=O)CO4)C(=O)O1)C2` (centres unmarked) [Example 89, 6-[5-[2-[(4-methyl-6,7-dihydro-5H-cyclopenta[b]pyridin-6-yl)methylamino]ethyl]-2-oxo-1,3-oxazolidin-3-yl]-4H-pyrido[3,2-b][1,4]oxazin-3-one], for which the negative-log IC50 (pIC50) was 6.52.

Consider `Cn1ccc(COc2cc(C#N)c3c(c2)CC(CNCCC2CN(c4cnc5c(n4)NC(=O)CO5)C(=O)O2)C3)n1` (centres unmarked) [Example 388, 6-[(1-methylpyrazol-3-yl)methoxy]-2-[[2-[2-oxo-3-(3-oxo-4H-pyrazino[2,3-b][1,4]oxazin-6-yl)-1,3-oxazolidin-5-yl]ethylamino]methyl]-2,3-dihydro-1H-indene-4-carbonitrile], for which the negative-log IC50 (pIC50) is 6.72.

In the case of `N#Cc1cc(OCC2(N)CC2)cc2c1CC(CCN1CC3(C1)CN(c1ccc4c(n1)NC(=O)CO4)C(=O)O3)C2` (centres unmarked) [Example 197, 6-((1-aminocyclopropyl)methoxy)-2-(2-(6-oxo-7-(3-oxo-3,4-dihydro-2H-pyrido[3,2-b][1,4]oxazin-6-yl)-5-oxa-2,7-diazaspiro[3.4]octan-2-yl)ethyl)-2,3-dihydro-1H-indene-4-carbonitrile], the negative logarithm of the IC50 (pIC50) is above 7.01.

As to `N#Cc1cc(OC[C@H](N)CO)cc2c1CC(CNCCC1CN(c3ccc4c(n3)NC(=O)CO4)C(=O)O1)C2` (stereo partly drawn) [Example 236, 6-[(2R)-2-Amino-3-hydroxypropoxy]-2-[[2-[2-oxo-3-(3-oxo-4H-pyrido[3,2-b][1,4]oxazin-6-yl)-1,3-oxazolidin-5-yl]ethylamino]methyl]-2,3-dihydro-1H-indene-4-carbonitrile], the negative logarithm of the IC50 (pIC50) was above 7.01.

Take `O=C1COc2ccc(N3CC(CCCNC4Cc5ccc(F)cc5C4)OC3=O)nc2N1` (centres unmarked) [Example 12, 6-[5-[3-[(5-fluoro-2,3-dihydro-1H-inden-2-yl)amino]propyl]-2-oxo-1,3-oxazolidin-3-yl]-4H-pyrido[3,2-b][1,4]oxazin-3-one; formic acid]: the pIC50 was 6.33.

With `Cc1nc(OCC2CC(=O)N(C)C2)c(C)c2c1CC(CNCCC1CN(c3ccc4c(n3)NC(=O)CO4)C(=O)O1)C2` (centres unmarked) [Example 103, 6-[5-[2-[[1,4-dimethyl-3-[(1-methyl-5-oxopyrrolidin-3-yl)methoxy]-6,7-dihydro-5H-cyclopenta[c]pyridin-6-yl]methylamino]ethyl]-2-oxo-1,3-oxazolidin-3-yl]-4H-pyrido[3,2-b][1,4]oxazin-3-one], the pIC50 is 5.77.

As for `O=C1COc2ncc(-n3cc(CCNCC4Cc5cncc(F)c5C4)oc3=O)nc2N1` (centres unmarked) [Example 372, 6-[5-[2-[(4-fluoro-6,7-dihydro-5H-cyclopenta[e]pyridin-6-yi)methylamino]ethyl]-2-oxo-1,3-oxazol-3-yl]-4H-pyrazino[2,3-b][1,4]oxazin-3-one], the negative logarithm of the IC50 (pIC50) was above 7.01.

For `N#Cc1cccc2c1CC(CN(CCN)CCC1CN(c3ccc4c(n3)NC(=O)CO4)C(=O)O1)C2` (centres unmarked) [Example 233, 2-[[2-Aminoethyl-[2-[2-oxo-3-(3-oxo-4H-pyrido[3,2-b][1,4]oxazin-6-yl)-1,3-oxazolidin-5-yl]ethyl]amino]methyl]-2,3-dihydro-1H-indene-4-carbonitrile; formic acid], the negative logarithm of the IC50 (pIC50) is 6.03.

As to `O=C1COc2ccc(N3CC(CCNCC4Cc5cccc(F)c5C4)OC3=O)nc2N1` (centres unmarked) [Example 91, 6-[5-[2-[(4-fluoro-2,3-dihydro-1H-inden-2-yl)methylamino]ethyl]-2-oxo-1,3-oxazolidin-3-yl]-4H-pyrido[3,2-b][1,4]oxazin-3-one], the pIC50 was above 7.01.

On to `CC(C)(N)COc1cc(F)c2c(c1F)CC(CN1CCC3(CC1)CN(c1cnc4c(n1)NC(=O)CO4)C(=O)O3)C2` (centres unmarked) [Example 412, 6-[8-[[5-(2-amino-2-methylpropoxy)-4,7-difluoro-2,3-dihydro-1H-inden-2-yl]methyl]-2-oxo-1-oxa-3,8-diazaspiro[4.5]decan-3-yl]-4H-pyrazino[2,3-b][1,4]oxazin-3-one; formic acid], for which the pIC50 is above 7.01.

As for `N#Cc1cccc2c1CC(CCN1CC3(C1)CN(c1ccc4c(n1)NC(=O)CO4)C(=O)O3)C2` (centres unmarked) [Example 33, 2-[2-[6-oxo-7-(3-oxo-4H-pyrido[3,2-b][1,4]oxazin-6-yl)-5-oxa-2,7-diazaspiro[3.4]octan-2-yl]ethyl]-2,3-dihydro-1H-indene-4-carbonitrile], the pIC50 is above 7.01.

With `O=C1COc2ncc(N3CC(CCNCC4Cc5cccc(Cl)c5C4)OC3=O)nc2N1` (centres unmarked) [Example 281, 6-[5-[2-[(4-Chloro-2,3-dihydro-1H-inden-2-yl)methylamino]ethyl]-2-oxo-1,3-oxazolidin-3-yl]-4H-pyrazino[2,3-b][1,4]oxazin-3-one], the pIC50 was above 7.01.

As for `O=C1COc2ccc(N3CC(CCCNC4Cc5ccnc(Cl)c5C4)OC3=O)nc2N1` (centres unmarked) [Example 92, 6-[5-[3-[(1-chloro-6,7-dihydro-5H-cyclopenta[c]pyridin-6-yl)amino]propyl]-2-oxo-1,3-oxazolidin-3-yl]-4H-pyrido[3,2-b][1,4]oxazin-3-one], the pIC50 is 6.43.

For `CC(C)(N)COc1cc(F)c2c(c1)CC(CNCC[C@@H]1CN(c3cnc4c(n3)NC(=O)CO4)C(=O)O1)C2` (stereo partly drawn) [Example 342, 6-[(5R)-5-[2-[[6-(2-amino-2-methylpropoxy)-4-fluoro-2,3-dihydro-1H-inden-2-yl]methylamino]ethyl]-2-oxo-1,3-oxazolidin-3-yl]-4H-pyrazino[2,3-b][1,4]oxazin-3-one; formic acid], the negative-log IC50 (pIC50) was 6.74.

For `NC1(COc2ncc3c(c2Cl)CC(CNCCC2CN(c4ccc5c(n4)NC(=O)CO5)C(=O)O2)C3)CC1` (centres unmarked) [Example 181, 6-[5-[2-[[3-[(1-aminocyclopropyl)methoxy]-4-chloro-6,7-dihydro-5H-cyclopenta[c]pyridin-6-yl]methylamino]ethyl]-2-oxo-1,3-oxazolidin-3-yl]-4H-pyrido[3,2-b][1,4]oxazin-3-one], the pIC50 is above 7.01.

As for `O=C1COc2ccc(N3CC(CNCC4Cc5cccc(Cl)c5C4)OC3=O)nc2N1` (centres unmarked) [Example 21, 6-[5-[[(4-chloro-2,3-dihydro-1H-inden-2-yl)methylamino]methyl]-2-oxo-1,3-oxazolidin-3-yl]-4H-pyrido[3,2-b][1,4]oxazin-3-one; formic acid], the negative logarithm of the IC50 (pIC50) is 6.34.

`O=C1COc2ncc(N3CC(CCNCC4Cc5ccnc(Cl)c5C4)OC3=O)nc2N1` (centres unmarked) [Example 38, 6-[5-[2-[(1-chloro-6,7-dihydro-5H-cyclopenta[c]pyridin-6-yl)methylamino]ethyl]-2-oxo-1,3-oxazolidin-3-yl]-4H-pyrazino[2,3-b][1,4]oxazin-3-one]: the negative logarithm of the IC50 (pIC50) is above 7.01.

For the compound `N#Cc1cccc2c1CC(N1CCC(C3CN(c4cnc5c(n4)NC(=O)CO5)C(=O)O3)CC1)C2` (centres unmarked) [Example 349, 2-[4-[2-oxo-3-(3-oxo-4H-pyrazino[2,3-b][1,4]oxazin-6-yl)-1,3-oxazolidin-5-yl]piperidin-1-yl]-2,3-dihydro-1H-indene-4-carbonitrile], the pIC50 is above 7.01.

For the compound `N#Cc1cc(OCC(N)=O)cc2c1CC(CNCCC1CN(c3cnc4c(n3)NC(=O)CO4)C(=O)O1)C2` (centres unmarked) [Example 414, 2-[[7-cyano-2-[[2-[2-oxo-3-(3-oxo-4H-pyrazino[2,3-b][1,4]oxazin-6-yl)-1,3-oxazolidin-5-yl]ethylamino]methyl]-2,3-dihydro-1H-inden-5-yl]oxy]acetamide], the negative-log IC50 (pIC50) was 6.90.

With `Cc1nc(OCC2COCCN2)c(C)c2c1CC(CNCCC1CN(c3ccc4c(n3)NC(=O)CO4)C(=O)O1)C2` (centres unmarked) [Example 199, 6-[5-[2-[[1,4-dimethyl-3-(morpholin-3-ylmethoxy)-6,7-dihydro-5H-cyclopenta[c]pyridin-6-yl]methylamino]ethyl]-2-oxo-1,3-oxazolidin-3-yl]-4H-pyrido[3,2-b][1,4]oxazin-3-one], the pIC50 was 7.05.

In the case of `N#Cc1cccc2c1CC(N[C@H]1C[C@H](C3CN(c4ccc5c(n4)NC(=O)CO5)C(=O)O3)C1)C2` (stereo partly drawn) [Example 14, 2-[[trans-3-[2-oxo-3-(3-oxo-4H-pyrido[3,2-b][1,4]oxazin-6-yl)-1,3-oxazolidin-5-yl]cyclobutyl]amino]-2,3-dihydro-1H-indene-4-carbonitrile], the pIC50 was 6.38.

Turning to `Cc1nc(OCCNC2CC2)c(C)c2c1CC(CNCCC1CN(c3ccc4c(n3)NC(=O)CO4)C(=O)O1)C2` (centres unmarked) [Example 189, 6-[5-[2-[[3-[2-(cyclopropylamino)ethoxy]-1,4-dimethyl-6,7-dihydro-5H-cyclopenta[c]pyridin-6-yl]methylamino]ethyl]-2-oxo-1,3-oxazolidin-3-yl]-4H-pyrido[3,2-b][1,4]oxazin-3-one], the pIC50 was 7.00.

On to `N#Cc1cccc2c1CC(N[C@H]1C[C@@H](C3CN(c4ccc5c(n4)NC(=O)CO5)C(=O)O3)C1)C2` (stereo partly drawn) [Example 19, 2-[[cis-3-[2-oxo-3-(3-oxo-4H-pyrido[3,2-b][1,4]oxazin-6-yl)-1,3-oxazolidin-5-yl]cyclobutyl]amino]-2,3-dihydro-1H-indene-4-carbonitrile; formic acid], for which the pIC50 was 6.35.

For `Cn1cc(COc2cc(C#N)c3c(c2)CC(CNCCC2CN(c4cnc5c(n4)NC(=O)CO5)C(=O)O2)C3)cn1` (centres unmarked) [Example 390, 6-[(1-methylpyrazol-4-yl)methoxy]-2-[[2-[2-oxo-3-(3-oxo-4H-pyrazino[2,3-b][1,4]oxazin-6-yl)-1,3-oxazolidin-5-yl]ethylamino]methyl]-2,3-dihydro-1H-indene-4-carbonitrile], the negative logarithm of the IC50 (pIC50) was 6.79.

As for `COc1cc2c(c(Cl)n1)CC(CNCCC1CN(c3cnc4c(n3)NC(=O)CO4)C(=O)O1)C2` (centres unmarked) [Example 50, 6-[5-[2-[(1-chloro-3-methoxy-6,7-dihydro-5H-cyclopenta[c]pyridin-6-yl)methylamino]ethyl]-2-oxo-1,3-oxazolidin-3-yl]-4H-pyrazino[2,3-b][1,4]oxazin-3-one], the negative logarithm of the IC50 (pIC50) is above 7.01.

Still in this assay, the particulars now being: strain Escherichia coli ATCC 25922; 10-point broth dilution, optical density at 600 nm over 16 h; read-out: Escherichia coli growth inhibition IC50.
In the case of `NC(=O)COc1cc(F)c2c(c1)CC(CNCC[C@H]1CN(c3cnc4c(n3)NC(=O)CO4)C(=O)O1)C2` (single isomer, unassigned; isomer b) [Example 380], the pIC50 is above 7.01.
